From PubChem BioAssay AID248 (DTP/NCI, 2004)
Where “and” joins values, the source holds several entries; their conditions need not be identical. Equal entries are not always repeated. Toxic doses and inconclusive results are not listed. Cut-off read from the data, not from the text of the source: active = T/C of 150% or more; inactive = T/C below 125%.

Tested on: L1210 leukemia ip in BDF1 mice, survival T/C
Assay: NCI In Vivo Anticancer Drug Screen. Data for tumor model L1210 Leukemia (intraperitoneal) in B6D2F1 (BDF1) mice
Settings: endpoint: mean survival time, higher = longer survival
Method in brief: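 Each compound was tested against a transplantable tumor grown in mice. The endpoint was survival, with treated animals benchmarked against vehicle controls as a simple ratio.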

[1] = dose: 100.0 mg/kg/injection, schedule: Q04DX003 (ip), vehicle: Klucel (hydroxypropylcellulose) (HPC)
[2] = dose: 200.0 mg/kg/injection, schedule: Q04DX003 (ip), vehicle: Klucel (hydroxypropylcellulose) (HPC)
[3] = dose: 400.0 mg/kg/injection, schedule: Q04DX003 (ip), vehicle: Klucel (hydroxypropylcellulose) (HPC)
[4] = dose: 50.0 mg/kg/injection, schedule: Q01DX009 (ip), vehicle: saline with Tween-80
[5] = dose: 100.0 mg/kg/injection, schedule: Q01DX009 (ip), vehicle: saline with Tween-80
[6] = dose: 200.0 mg/kg/injection, schedule: Q01DX009 (ip), vehicle: saline with Tween-80
[7] = dose: 100.0 mg/kg/injection, schedule: Q01DX009 (ip), vehicle: Klucel (hydroxypropylcellulose) (HPC)
[8] = dose: 200.0 mg/kg/injection, schedule: Q01DX009 (ip), vehicle: Klucel (hydroxypropylcellulose) (HPC)
[9] = dose: 100.0 mg/kg/injection, schedule: Q04DX003 (ip), vehicle: saline with Tween-80
[10] = dose: 200.0 mg/kg/injection, schedule: Q04DX003 (ip), vehicle: saline with Tween-80
[11] = dose: 400.0 mg/kg/injection, schedule: Q04DX003 (ip), vehicle: saline with Tween-80
[12] = dose: 100.0 mg/kg/injection, schedule: Q04DX002 (ip), vehicle: Klucel (hydroxypropylcellulose) (HPC)
[13] = dose: 200.0 mg/kg/injection, schedule: Q04DX002 (ip), vehicle: Klucel (hydroxypropylcellulose) (HPC)

Measured: T/C

CC[PH+]1c2ccccc2Oc2ccccc21.CC[PH+]1c2ccccc2Oc2ccccc21.[Br][Pd][Br]
inactive: dose: 12.5 mg/kg/injection, schedule: Q04DX003 (ip), vehicle: saline with Tween-80 98 % of control | dose: 25.0 mg/kg/injection, schedule: Q04DX003 (ip), vehicle: saline with Tween-80 98 % of control | dose: 50.0 mg/kg/injection, schedule: Q04DX003 (ip), vehicle: saline with Tween-80 98 % of control

Cc1ccc(-c2nc3ncnc(N)c3[nH]2)cc1N
inactive: dose: 100.0 mg/kg/injection, schedule: Q04DX003 (ip), vehicle: saline 89 % of control | dose: 200.0 mg/kg/injection, schedule: Q04DX003 (ip), vehicle: saline 94 % of control | dose: 400.0 mg/kg/injection, schedule: Q04DX003 (ip), vehicle: saline 94 % of control

Cc1ccc(C(=O)CC(=O)Nc2cc([N+](=O)[O-])ccc2OCCOc2ccc(C(C)(C)CC(C)(C)C)cc2)cc1
inactive: dose: 100.0 mg/kg/injection, schedule: Q01DX009 (ip), vehicle: saline sonified 100 % of control | [1] 112 % of control | dose: 200.0 mg/kg/injection, schedule: Q01DX009 (ip), vehicle: saline sonified 97 % of control | [2] 89 % of control | dose: 400.0 mg/kg/injection, schedule: Q01DX009 (ip), vehicle: saline sonified 87 % of control | [3] 94 % of control

O=C/C=C/c1cccnc1
inactive: dose: 25.0 mg/kg/injection, schedule: Q01DX009 (ip), vehicle: saline with Tween-80 92 % of control | [4] 100 % of control | [5] 101 % of control | [6] 99 % of control

CCOC(=O)CCC(C)Br (stereo not drawn)
inactive: [4] 97 % of control | [5] 101 % of control | [6] 108 % of control

COc1cccc2c1CCC1C2CC=C2CC3(CCC21C)OCCO3 (stereo not drawn)
inactive: dose: 100.0 mg/kg/injection, schedule: Q01DX009 (sc), vehicle: steriod suspending solution 102 % of control | dose: 200.0 mg/kg/injection, schedule: Q01DX009 (sc), vehicle: steriod suspending solution 102 % of control | dose: 400.0 mg/kg/injection, schedule: Q01DX009 (sc), vehicle: steriod suspending solution 101 % of control

Fc1c(F)c(C(F)(F)F)c(F)c(F)c1P(c1c(F)c(F)c(C(F)(F)F)c(F)c1F)c1c(F)c(F)c(C(F)(F)F)c(F)c1F
inactive: dose: 75.0 mg/kg/injection, schedule: Q01DX009 (ip), vehicle: Klucel (hydroxypropylcellulose) (HPC) 123 % of control | [1] 97 % of control | dose: 150.0 mg/kg/injection, schedule: Q01DX009 (ip), vehicle: Klucel (hydroxypropylcellulose) (HPC) 96 % of control | [2] 100 % of control | dose: 300.0 mg/kg/injection, schedule: Q01DX009 (ip), vehicle: Klucel (hydroxypropylcellulose) (HPC) 100 % of control | [3] 100 % of control

CC1(C)CC(=O)c2c(cc(O)c3ccc(=O)oc23)O1
inactive: [7] 96 % of control | [1] 100 % of control | [8] 98 % of control | [2] 104 % of control | dose: 400.0 mg/kg/injection, schedule: Q01DX009 (ip), vehicle: Klucel (hydroxypropylcellulose) (HPC) 91 % of control | [3] 96 % of control

O=C1NCCCC1c1nc2cccc3c2n1CCC3 (stereo not drawn)
inactive: [1] 94 % of control | [2] 108 % of control | [3] 97 % of control

CSc1cc(C)[o+]c(C)c1
inactive: dose: 12.5 mg/kg/injection, schedule: Q01DX009 (ip), vehicle: Klucel (hydroxypropylcellulose) (HPC) 108 % of control | dose: 25.0 mg/kg/injection, schedule: Q01DX009 (ip), vehicle: Klucel (hydroxypropylcellulose) (HPC) 112 % of control | dose: 50.0 mg/kg/injection, schedule: Q01DX009 (ip), vehicle: Klucel (hydroxypropylcellulose) (HPC) 105 % of control | dose: 75.0 mg/kg/injection, schedule: Q01DX009 (ip), vehicle: acetone 110 % of control | dose: 100.0 mg/kg/injection, schedule: Q01DX001 (ip), vehicle: saline 97 % of control | [7] 120 % of control | dose: 115.0 mg/kg/injection, schedule: Q01DX009 (ip), vehicle: acetone 103 % of control | dose: 170.0 mg/kg/injection, schedule: Q01DX009 (ip), vehicle: acetone 95 % of control | dose: 200.0 mg/kg/injection, schedule: Q01DX001 (ip), vehicle: saline 103 % of control | [8] 106 % of control | dose: 255.0 mg/kg/injection, schedule: Q01DX009 (ip), vehicle: acetone 110 % of control

Clc1cc2c(c3c1CONC3)OCO2
inactive: [9] 92 % of control | [10] 90 % of control | [11] 100 % of control

Cc1ccc(NC(=O)OCCN(C)C)cc1NC(=O)OCCN(C)C
inactive: dose: 12.5 mg/kg/injection, schedule: Q01DX009 (ip), vehicle: saline 98 % of control and 97 % of control | dose: 25.0 mg/kg/injection, schedule: Q01DX009 (ip), vehicle: saline 98 % of control | dose: 50.0 mg/kg/injection, schedule: Q01DX009 (ip), vehicle: saline 101 % of control and 92 % of control | dose: 100.0 mg/kg/injection, schedule: Q01DX009 (ip), vehicle: saline 102 % of control

O=C(Sc1ccc2ccccc2c1CN1CCCCC1)c1ccc([N+](=O)[O-])cc1
inactive: dose: 200.0 mg/kg/injection, schedule: Q01DX Z (ip), vehicle: methylcellulose (MC) 96 % of control | dose: 225.0 mg/kg/injection, schedule: Q01DX Z (ip), vehicle: methylcellulose (MC) 94 % of control | dose: 450.0 mg/kg/injection, schedule: Q01DX Z (ip), vehicle: methylcellulose (MC) 89 % of control | dose: 675.0 mg/kg/injection, schedule: Q01DX Z (ip), vehicle: methylcellulose (MC) 96 % of control

CN(C)c1ncnc2c1nnn2C1OC(CO)C(O)C1O (stereo not drawn)
inactive: dose: 178.0 mg/kg/injection, schedule: Q01DX001 (ip), vehicle: saline 106 % of control | dose: 267.0 mg/kg/injection, schedule: Q01DX001 (ip), vehicle: saline 106 % of control | dose: 400.0 mg/kg/injection, schedule: Q01DX001 (ip), vehicle: saline 117 % of control

COc1cccc(CBr)c1-c1c(CBr)cccc1OC
inactive: [12] 94 % of control | [13] 110 % of control | dose: 400.0 mg/kg/injection, schedule: Q04DX002 (ip), vehicle: Klucel (hydroxypropylcellulose) (HPC) 94 % of control

O=C1OCC/C1=C/OCCO/C=C1\CCOC1=O
inactive: [12] 94 % of control | [13] 90 % of control

CC(=O)C12OC(C)(C)OC1CC1C3CCC4=CC(=O)C=CC4(C)C3(F)C(O)CC12C (stereo not drawn)
inactive: dose: 12.5 mg/kg/injection, schedule: Q04DX002 (ip), vehicle: Klucel (hydroxypropylcellulose) (HPC) 104 % of control | dose: 25.0 mg/kg/injection, schedule: Q04DX002 (ip), vehicle: Klucel (hydroxypropylcellulose) (HPC) 107 % of control | dose: 50.0 mg/kg/injection, schedule: Q04DX002 (ip), vehicle: Klucel (hydroxypropylcellulose) (HPC) 107 % of control

CCC(S)C(=O)Nc1ccccc1 (stereo not drawn)
inactive: [9] 107 % of control | [10] 90 % of control | [11] 91 % of control

C/C(=N\N=C(N)N)c1ccc(NC(N)=S)cc1
inactive: dose: 20.0 mg/kg/injection, schedule: Q01DX005 (ip), vehicle: saline 106 % of control | dose: 40.0 mg/kg/injection, schedule: Q01DX005 (ip), vehicle: saline 97 % of control

CC(C)S.[Pb]
inactive: dose: 100.0 mg/kg/injection, schedule: Q04DX002 (ip), vehicle: gum acacia 100 % of control | dose: 200.0 mg/kg/injection, schedule: Q04DX002 (ip), vehicle: gum acacia 100 % of control | dose: 400.0 mg/kg/injection, schedule: Q04DX002 (ip), vehicle: gum acacia 89 % of control

CS(=O)(=O)OC1CCCCC1Oc1ccc(Br)cc1 (stereo not drawn)
inactive: dose: 100.0 mg/kg/injection, schedule: Q01DX001 (ip), vehicle: Klucel (hydroxypropylcellulose) (HPC) 106 % of control | [1] 101 % of control | dose: 200.0 mg/kg/injection, schedule: Q01DX001 (ip), vehicle: Klucel (hydroxypropylcellulose) (HPC) 104 % of control | [2] 113 % of control | dose: 400.0 mg/kg/injection, schedule: Q01DX001 (ip), vehicle: Klucel (hydroxypropylcellulose) (HPC) 103 % of control | [3] 98 % of control

Cc1c(C(=O)c2ccccc2)c2ccccc2n1C
inactive: dose: 50.0 mg/kg/injection, schedule: Q01DX001 (ip), vehicle: carboxymethylcellulose (CMC) 96 % of control | dose: 100.0 mg/kg/injection, schedule: Q01DX001 (ip), vehicle: carboxymethylcellulose (CMC) 91 % of control | dose: 200.0 mg/kg/injection, schedule: Q01DX001 (ip), vehicle: carboxymethylcellulose (CMC) 93 % of control | dose: 400.0 mg/kg/injection, schedule: Q01DX001 (ip), vehicle: carboxymethylcellulose (CMC) 93 % of control
